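96-well plates; 48 h exposure; 5 concentrations. Endpoints by linear interpolation between flanking doses. Not reached: highest tested concentration assigned. Abbreviation: GI50, concentration required for 50% inhibition of growth. TGI denotes the concentration required for complete inhibition of growth.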
Key:
Assay in all cases: NCI anticancer screen, dose series, 48 h
[1] = system: 786-0 renal
[2] = system: A498 renal
[3] = system: A549 NSCLC
[4] = system: ACHN renal
[5] = system: BT-549 breast
[6] = system: CAKI-1 renal
[7] = system: CCRF-CEM leukemia
[8] = system: COLO 205 colon
[9] = system: DU-145 prostate
[10] = system: EKVX NSCLC
[11] = system: HCC-2998 colon
[12] = system: HCT-116 colon
[13] = system: HCT-15 colon
[14] = system: HL-60(TB) leukemia
[15] = system: HOP-62 NSCLC
[16] = system: HOP-92 NSCLC
[17] = system: HS 578T breast
[18] = system: HT29 colon
[19] = system: IGROV1 ovarian
[20] = system: K-562 leukemia
[21] = system: KM12 colon
[22] = system: LOX IMVI melanoma
[23] = system: M14 melanoma
[24] = system: MALME-3M melanoma
[25] = system: MCF7 breast
[26] = system: MDA-MB-231 breast
[27] = system: MDA-MB-435
[28] = system: MDA-MB-468 breast
[29] = system: MOLT-4 leukemia
[30] = system: NCI-H226 lung
[31] = system: NCI-H23 lung
[32] = system: NCI-H460 lung
[33] = system: NCI-H522 lung
[34] = system: OVCAR-3 ovarian
[35] = system: OVCAR-4 ovarian
[36] = system: OVCAR-5 ovarian
[37] = system: OVCAR-8 ovarian
[38] = system: PC-3 prostate
[39] = system: RPMI-8226 leukemia
[40] = system: RXF 393 renal
[41] = system: SF-268 CNS
[42] = system: SF-295 CNS
[43] = system: SF-539 CNS
[44] = system: SK-MEL-2 melanoma
[45] = system: SK-MEL-28 melanoma
[46] = system: SK-MEL-5 melanoma
[47] = system: SK-OV-3 ovarian
[48] = system: SN12C renal
[49] = system: SNB-19 CNS
[50] = system: SNB-75 CNS
[51] = system: SR leukemia
[52] = system: SW-620 colon
[53] = system: T-47D breast
[54] = system: TK-10 renal
[55] = system: U251 CNS
[56] = system: UACC-257 melanoma
[57] = system: UACC-62 melanoma
[58] = system: UO-31 renal

COc1ccc2nc(Nc3cccc(NC(=O)c4ccc(CN5CCN(C)CC5)c(C(F)(F)F)c4)c3)ccc2c1
GI50 [1]: 4.99 µM
TGI [1]: 10.1 µM
GI50 [2]: 7.36 µM
TGI [2]: 13.2 µM
GI50 [3]: 4.36 µM
TGI [3]: 9.66 µM
GI50 [4]: 4.88 µM
TGI [4]: 9.84 µM
GI50 [5]: 5.58 µM
TGI [5]: 10.9 µM
GI50 [6]: 4.9 µM
TGI [6]: 9.97 µM
GI50 [7]: 2.15 µM
TGI [7]: 7.65 µM
GI50 [8]: 5.78 µM
TGI [8]: 11.7 µM
GI50 [9]: 5.23 µM
TGI [9]: 10.4 µM
GI50 [10]: 4.53 µM
TGI [10]: 9.61 µM
GI50 [11]: 5.25 µM
TGI [11]: 10.7 µM
GI50 [12]: 2.41 µM
TGI [12]: 7.74 µM
GI50 [13]: 1.18 µM
TGI [13]: 4.45 µM
GI50 [14]: 5.46 µM
TGI [14]: 12.4 µM
GI50 [15]: 6.36 µM
TGI [15]: 12 µM
GI50 [16]: 1.36 µM
TGI [16]: 6.15 µM
GI50 [17]: 4.14 µM
TGI [17]: 15 µM
GI50 [18]: 1.32 µM
TGI [18]: 5.08 µM
GI50 [19]: 6.22 µM
TGI [19]: 12.3 µM
GI50 [20]: 0.882 µM
TGI [20]: 2.59 µM
GI50 [21]: 4.05 µM
TGI [21]: 9.62 µM
GI50 [22]: 1.55 µM
TGI [22]: 6.05 µM
GI50 [23]: 3.63 µM
TGI [23]: 8.58 µM
GI50 [24]: 4.62 µM
TGI [24]: 9.54 µM
GI50 [25]: 1.37 µM
TGI [25]: 6.12 µM
GI50 [26]: 1.84 µM
TGI [26]: 6.49 µM
GI50 [27]: 5.73 µM
TGI [27]: 11 µM
GI50 [28]: 1.56 µM
TGI [28]: 7.09 µM
GI50 [29]: 1.63 µM
TGI [29]: 6.75 µM
GI50 [30]: 4.6 µM
TGI [30]: 9.77 µM
GI50 [31]: 5.06 µM
TGI [31]: 10.4 µM
GI50 [32]: 1.88 µM
TGI [32]: 7.21 µM
GI50 [33]: 4.88 µM
TGI [33]: 10.3 µM
GI50 [34]: 5.89 µM
TGI [34]: 11.2 µM
GI50 [35]: 4.32 µM
TGI [35]: 10 µM
GI50 [36]: 6.1 µM
TGI [36]: 11.5 µM
GI50 [37]: 5.82 µM
TGI [37]: 11.1 µM
GI50 [38]: 2.9 µM
TGI [38]: 8.68 µM
GI50 [39]: 3.14 µM
TGI [39]: 10.3 µM
GI50 [40]: 1.75 µM
TGI [40]: 6.96 µM
GI50 [41]: 5.2 µM
TGI [41]: 12.5 µM
GI50 [42]: 3.41 µM
TGI [42]: 8.74 µM
GI50 [43]: 2.08 µM
TGI [43]: 7.59 µM
GI50 [44]: 5.98 µM
TGI [44]: 11.4 µM
GI50 [45]: 5.33 µM
TGI [45]: 10.4 µM
GI50 [46]: 5.1 µM
TGI [46]: 10.2 µM
GI50 [47]: 5.99 µM
TGI [47]: 11.4 µM
GI50 [48]: 5.49 µM
TGI [48]: 10.8 µM
GI50 [49]: 6.14 µM
TGI [49]: 11.5 µM
GI50 [50]: 0.684 µM
TGI [50]: 6.45 µM
GI50 [51]: 1.31 µM
TGI [51]: 5.72 µM
GI50 [52]: 5.89 µM
TGI [52]: 11.6 µM
GI50 [53]: 4.12 µM
TGI [53]: 9.96 µM
GI50 [54]: 6.52 µM
TGI [54]: 12.1 µM
GI50 [55]: 3.77 µM
TGI [55]: 8.84 µM
GI50 [56]: 4.35 µM
TGI [56]: 9.13 µM
GI50 [57]: 6.45 µM
TGI [57]: 11.9 µM
GI50 [58]: 5.68 µM
TGI [58]: 10.9 µM

Source: PubChem BioAssay (NCI)
